Patent publication US8952024B2, “Herbicidal pyrimidone derivatives” (E I du Pont de Nemours and Company, priority 2009, dated 2015)

Legend:
Experiment in all cases: Test B pre-/postemergence plant response
Type in all cases: in vivo
[1] = test system: blackgrass (Alopecurus myosuroides); conditions: for Blackgrass plant response rating (0 to 100 scale): 62 g ai/ha, 0 is no effect, 13 to 15 days
Outline: (§1)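 Compound in solvent + surfactant applied pre-em (loam/sand) or post-em (plants 2–18 cm, peat medium); greenhouse hold 13–15 days; visual 0–100 control score.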

[2] = test system: woolly cupgrass (Eriochloa villosa); conditions: for Cupgrass, Woolly plant response rating (0 to 100 scale): 62 g ai/ha, 0 is no effect, 13 to 15 days
Outline: as §1

[3] = test system: wild oat (Avena fatua); conditions: for Oat, Wild plant response rating (0 to 100 scale): 62 g ai/ha, 0 is no effect, 13 to 15 days
Outline: as §1

[4] = test system: kochia (Kochia scoparia); conditions: for Kochia plant response rating (0 to 100 scale): 62 g ai/ha, 0 is no effect, 13 to 15 days
Outline: as §1

[5] = test system: wheat (Triticum aestivum); conditions: for Plant response rating, Wheat: Postemergence; for Wheat plant response rating (0 to 100 scale): 62 g ai/ha, postemergence, 0 is no effect, 100 is complete control, 13 to 15 days
Outline: as §1

[6] = test system: downy bromegrass (Bromus tectorum); conditions: for Bromegrass, Downy plant response rating (0 to 100 scale): 62 g ai/ha, 0 is no effect, 13 to 15 days
Outline: as §1

[7] = test system: bermudagrass (Cynodon dactylon); conditions: for Bermudagrass plant response rating (0 to 100 scale): 62 g ai/ha, 0 is no effect, 13 to 15 days
Outline: as §1

[8] = test system: ragweed (common ragweed, Ambrosia elatior); conditions: for Plant response rating, Ragweed: Postemergence; for Ragweed plant response rating (0 to 100 scale): 62 g ai/ha, postemergence, 0 is no effect, 100 is complete control, 13 to 15 days
Outline: as §1

[9] = test system: morningglory (Ipomoea coccinea); conditions: for Morningglory plant response rating (0 to 100 scale): 62 g ai/ha, 0 is no effect, 13 to 15 days
Outline: as §1

[10] = test system: Surinam grass (Brachiaria decumbens); conditions: for Plant response rating, Surinam Grass: Postemergence; for Surinam Grass plant response rating (0 to 100 scale): 62 g ai/ha, postemergence, 0 is no effect, 100 is complete control, 13 to 15 days
Outline: as §1

[11] = test system: cocklebur (Xanthium strumarium); conditions: for Cocklebur plant response rating (0 to 100 scale): 62 g ai/ha, 0 is no effect, 13 to 15 days
Outline: as §1

[12] = test system: Italian ryegrass (Lolium multiflorum); conditions: for Plant response rating, Ryegrass, Italian: Postemergence; for Ryegrass, Italian plant response rating (0 to 100 scale): 62 g ai/ha, postemergence, 0 is no effect, 100 is complete control, 13 to 15 days
Outline: as §1

[13] = test system: large crabgrass (Digitaria sanguinalis); conditions: for Crabgrass, Large plant response rating (0 to 100 scale): 62 g ai/ha, 0 is no effect, 13 to 15 days
Outline: as §1

[14] = 16 g ai/ha, Postemergence, 0 to 100 scale
[15] = postemergence, 100 is complete control
[16] = Postemergence, 31 g ai/ha, 0 to 100 scale (0 no effect, 100 complete control)
[17] = Postemergence, 125 g ai/ha, scale 0 to 100 (0 no effect, 100 complete control)
[18] = 31 g ai/ha, 0 to 100 scale (0 no effect, 100 complete control)
[19] = 125 g ai/ha, scale 0 to 100 (0 no effect, 100 complete control)
[20] = 31 g ai/ha, postemergence, scale 0 to 100, 0 is no effect, 100 is complete control
[21] = Postemergence, 250 g ai/ha, scale 0 to 100 (0 no effect, 100 complete control)
[22] = 250 g ai/ha, scale 0 to 100 (0 no effect, 100 complete control)

Compound: O=C1CCCC(O)=C1C(=O)c1cnc(-c2ccccc2)n(C2CCCC2)c1=O [Compound 131]
- Plant response rating, Blackgrass [1, 14]: 0
- Blackgrass plant response rating (0 to 100 scale) [1, 15]: 0
- Plant response rating, Blackgrass [1, 16]: 0
- Plant response rating, Blackgrass [1, 17]: 0
- Plant response rating, Cupgrass, Woolly [2, 14]: 10
- Cupgrass, Woolly plant response rating (0 to 100 scale) [2, 15]: 60
- Plant response rating, Cupgrass, Woolly [2, 16]: 50
- Plant response rating, Cupgrass, Woolly [2, 17]: 65
- Plant response rating, Oat, Wild [3, 14]: 0
- Oat, Wild plant response rating (0 to 100 scale) [3, 15]: 0
- Plant response rating, Oat, Wild [3, 16]: 0
- Plant response rating, Oat, Wild [3, 17]: 0
- Plant response rating, Kochia [4, 14]: 20
- Kochia plant response rating (0 to 100 scale) [4, 15]: 60
- Plant response rating, Kochia [4, 16]: 35
- Plant response rating, Kochia [4, 17]: 75
- Plant response rating, Wheat ([5]; 16 g ai/ha, 0 to 100 scale): 0
- Wheat plant response rating (0 to 100 scale) [5]: 0
- Plant response rating, Wheat [5, 18]: 0
- Plant response rating, Wheat [5, 19]: 0
- Plant response rating, Bromegrass, Downy [6, 14]: 0
- Bromegrass, Downy plant response rating (0 to 100 scale) [6, 15]: 0
- Plant response rating, Bromegrass, Downy [6, 16]: 0
- Plant response rating, Bromegrass, Downy [6, 17]: 0
- Plant response rating, Bermudagrass [7, 14]: 60
- Bermudagrass plant response rating (0 to 100 scale) [7, 15]: 75
- Plant response rating, Bermudagrass [7, 16]: 65
- Plant response rating, Bermudagrass [7, 17]: 85
- Plant response rating, Ragweed ([8]; 16 g ai/ha, 0 to 100 scale): 65
- Ragweed plant response rating (0 to 100 scale) [8]: 85
- Plant response rating, Ragweed [8, 18]: 80
- Plant response rating, Ragweed [8, 19]: 95
- Plant response rating, Morningglory [9, 14]: 5
- Morningglory plant response rating (0 to 100 scale) [9, 15]: 70
- Plant response rating, Morningglory [9, 16]: 70
- Plant response rating, Morningglory [9, 17]: 75
- Plant response rating, Surinam Grass ([10]; 16 g ai/ha, 0 to 100 scale): 15
- Surinam Grass plant response rating (0 to 100 scale) [10]: 60
- Plant response rating, Surinam Grass [10, 18]: 20
- Plant response rating, Surinam Grass [10, 19]: 65
- Plant response rating, Cocklebur [11, 14]: 80
- Cocklebur plant response rating (0 to 100 scale) [11, 15]: 98
- Plant response rating, Cocklebur [11, 16]: 95
- Plant response rating, Cocklebur [11, 17]: 100
- Plant response rating, Ryegrass, Italian ([12]; 16 g ai/ha, 0 to 100 scale): 0
- Ryegrass, Italian plant response rating (0 to 100 scale) [12]: 0
- Plant response rating, Ryegrass, Italian [12, 18]: 0
- Plant response rating, Ryegrass, Italian [12, 19]: 0
- Plant response rating, Crabgrass, Large [13, 14]: 65
- Crabgrass, Large plant response rating (0 to 100 scale) [13, 15]: 75
- Plant response rating, Crabgrass, Large [13, 16]: 75
- Plant response rating, Crabgrass, Large [13, 17]: 80

Compound: COCC(C)n1c(-c2ccccc2)ncc(C(=O)C2=C(O)CCCC2=O)c1=O (stereo not drawn) [Compound 107]
- Plant response rating, Blackgrass [1, 20]: 0
- Blackgrass plant response rating (0 to 100 scale) [1, 15]: 5
- Plant response rating, Blackgrass [1, 17]: 15
- Plant response rating, Blackgrass [1, 21]: 20
- Plant response rating, Cupgrass, Woolly [2, 20]: 65
- Cupgrass, Woolly plant response rating (0 to 100 scale) [2, 15]: 65
- Plant response rating, Cupgrass, Woolly [2, 17]: 75
- Plant response rating, Cupgrass, Woolly [2, 21]: 80
- Plant response rating, Oat, Wild [3, 20]: 0
- Oat, Wild plant response rating (0 to 100 scale) [3, 15]: 5
- Plant response rating, Oat, Wild [3, 17]: 20
- Plant response rating, Oat, Wild [3, 21]: 40
- Plant response rating, Kochia [4, 20]: 98
- Kochia plant response rating (0 to 100 scale) [4, 15]: 98
- Plant response rating, Kochia [4, 17]: 100
- Plant response rating, Kochia [4, 21]: 100
- Wheat plant response rating (0 to 100 scale) [5]: 5
- Plant response rating, Wheat [5, 19]: 5
- Plant response rating, Bromegrass, Downy [6, 20]: 0
- Bromegrass, Downy plant response rating (0 to 100 scale) [6, 15]: 5
- Plant response rating, Bromegrass, Downy [6, 17]: 10
- Plant response rating, Bromegrass, Downy [6, 21]: 30
- Plant response rating, Bermudagrass [7, 20]: 75
- Bermudagrass plant response rating (0 to 100 scale) [7, 15]: 80
- Plant response rating, Bermudagrass [7, 17]: 95
- Plant response rating, Bermudagrass [7, 21]: 98
- Ragweed plant response rating (0 to 100 scale) [8]: 85
- Plant response rating, Ragweed [8, 19]: 95
- Plant response rating, Ragweed [8, 22]: 98
- Plant response rating, Morningglory [9, 20]: 100
- Morningglory plant response rating (0 to 100 scale) [9, 15]: 100
- Plant response rating, Morningglory [9, 17]: 100
- Plant response rating, Morningglory [9, 21]: 100
- Surinam Grass plant response rating (0 to 100 scale) [10]: 75
- Plant response rating, Surinam Grass [10, 19]: 80
- Plant response rating, Surinam Grass [10, 22]: 85
- Plant response rating, Cocklebur [11, 20]: 98
- Cocklebur plant response rating (0 to 100 scale) [11, 15]: 100
- Plant response rating, Cocklebur [11, 17]: 100
- Plant response rating, Cocklebur [11, 21]: 100
- Ryegrass, Italian plant response rating (0 to 100 scale) [12]: 0
- Plant response rating, Ryegrass, Italian [12, 19]: 5
- Plant response rating, Ryegrass, Italian [12, 22]: 5
- Plant response rating, Crabgrass, Large [13, 20]: 75
- Crabgrass, Large plant response rating (0 to 100 scale) [13, 15]: 85
- Plant response rating, Crabgrass, Large [13, 17]: 90
- Plant response rating, Crabgrass, Large [13, 21]: 95
